Reference: patent EP0774116B1, “METHOD FOR SCREENING COMPOUND LIBRARIES” (ZENECA LIMITED, priority 1994, dated 1996)

Experiments:
[1] = molecular target: T1, endothelin converting enzyme (Bos taurus, UniProt P42891); test: Zones of enzyme inhibition in Sephacryl gel with fluorogenic FRET substrate, fluorescence imaging; assay type: biochemical; conditions: beads impregnated with 10mM solution in DMSO; gel left at ambient temperature overnight; FRET substrate 4micromolar
T1 construct: Samples of endothelin converting enzyme (ECE) were obtained essentially according to the method of Okada et al; endogenous in cells; By own knowledge of Okada et al. 1990: membrane fraction of cultured bovine endothelial cells
T1 sequence (P42891 1-754): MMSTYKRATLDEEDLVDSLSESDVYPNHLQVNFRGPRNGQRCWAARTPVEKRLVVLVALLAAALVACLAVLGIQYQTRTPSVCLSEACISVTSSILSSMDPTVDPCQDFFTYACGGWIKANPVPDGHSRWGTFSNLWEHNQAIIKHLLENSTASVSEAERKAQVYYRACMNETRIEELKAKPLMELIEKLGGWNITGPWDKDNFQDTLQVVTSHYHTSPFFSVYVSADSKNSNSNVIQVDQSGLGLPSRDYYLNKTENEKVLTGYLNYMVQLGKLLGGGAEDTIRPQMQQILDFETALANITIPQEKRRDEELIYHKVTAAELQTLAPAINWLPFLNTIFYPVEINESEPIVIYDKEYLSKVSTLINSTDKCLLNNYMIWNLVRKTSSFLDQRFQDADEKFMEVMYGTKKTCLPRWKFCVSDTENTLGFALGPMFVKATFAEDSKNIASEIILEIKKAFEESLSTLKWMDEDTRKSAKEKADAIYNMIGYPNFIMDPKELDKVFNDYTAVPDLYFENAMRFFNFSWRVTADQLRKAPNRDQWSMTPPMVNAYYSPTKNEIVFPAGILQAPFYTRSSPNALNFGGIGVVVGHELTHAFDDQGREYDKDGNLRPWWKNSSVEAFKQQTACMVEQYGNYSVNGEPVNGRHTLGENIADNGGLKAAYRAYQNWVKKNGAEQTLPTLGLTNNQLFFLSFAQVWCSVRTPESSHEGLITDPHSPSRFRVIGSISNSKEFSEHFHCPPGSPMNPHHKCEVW
Description: In this example, polystyrene beads are impregnated with a compound (phosphoramidon) to simulate the situation that would arise when a compound is made on a bead and then released prior to contacting the assay medium. The assay medium comprises a Sephacryl™ gel containing an enzyme, endothelin converting enzyme, and a fluorogenic FRET substrate, following by fluorescence imaging of the gel.
Ca 300 beads as used in Example 1 were suspended in a solution of phosphoramidon (10mM) in DMSO, allowed to swell and washed briefly in DMSO.
The FRET substrate, was derived from that of human big endothelin-1, 16-37, with Glu-26 changed to Cys: [formula] Fluorescein had been attached to Cys-26 and tetramethylrhodamine attached to the N-terminus, such that cleavage of the substrate removes the quenching effect of the tetramethylrhodamine resulting in an increase of fluorescein fluorescence.
The assay phase was assembled as follows. Sephacryl™ S-500 gel was suspended in 0.2M Tris/HCl pH 7.2 containing 0.5% BSA and then washed with buffer alone. To this gel suspension (24.5ml) was added the FRET substrate (3ml, 4micromolar final) and ECE (2.6 microlitres). After gentle mixing, the gel was poured into the polystyrene lid of a microtitre plate, allowed to settle and excess liquid gently removed with a tissue. […] The gel was then imaged on a fluorescence imager (FluorImager, Molecular Dynamics).

endothelin receptor = test: IC-50 determination by conventional filtration techniques (Holland et al.); assay type: binding
[2] = test system: porcine endothelin receptor; test: Zone screening scintillation proximity assay in agarose gel, [125-I]Endothelin binding to receptor-coated SPA microspheres; conditions: one bead per well
Description: Agarose (Sigma) was suspended in distilled water and heated to boiling point in a microwave to melt, then cooled to 50 deg. C. Microspheres coated with the porcine endothelin receptor (1 vial, SPA, Amersham) were re-constituted in assay buffer (50 mM Tris.HCl, 1 mM EDTA, 0.1% BSA, 10 mM MgC12, pH 6.4 (25 ml). This suspension (10 ml) was then added to the cooled (50 deg. C) agarose (10 ml), vortexed mixed and 0.1 ml portions immediately added to wells of a white microtitre plate (Picoplate-96, Packard).
Test compounds were prepared as follows. Polystyrene beads (as used in example 1) were suspended in DMSO solutions of endothelin-1 (Cambridge Research Biochemicals) or various test compounds (T1 - T4) at various concentrations (see Table 1) for about 2 hours. After a spin (1 min.) on a micro-fuge, the beads were washed briefly in ethanol. Single beads were then transfered with forceps into the centre of the wells containing the SPA/agarose mix, one bead per well.
[125-I]Endothelin (Amersham) was diluted into the assay buffer to give a 180 pM solution. 6 ml of this was added to 6 ml of 1% agarose (at 50 deg. C) and vortexed mixed. 0.05 ml aliquots were then immediately added to each well. The plate was then sealed (Topseal-S, Packard) and counted at intervals (Top Count, Packard) for 2 minutes per well. By reference to a total control (no compound present) and non-specific binding control (40 micromolar endothelin-1, measured after 8 hours incubation), the per cent inhibition caused by each compound as it diffused away from the bead was calculated.
This inhibition is related to the potency of the compound. […]

zones of enzyme inhibition in gel (fluorescence image) [1] | IC50 (endothelin receptor) | inhibition (%) ([2]; readings at 2 hours, bead soaked in 1.25 micromolar DMSO solution) | inhibition (%) ([2]; readings at 2 hours, bead soaked in 2.5 micromolar DMSO solution) | inhibition (%) ([2]; readings at 2 hours, bead soaked in 5 micromolar DMSO solution) | inhibition (%) ([2]; readings at 2 hours, bead soaked in 10 micromolar DMSO solution) | inhibition (%) ([2]; readings at 2 hours, bead soaked in 20 micromolar DMSO solution) | inhibition (%) ([2]; readings at 2 hours, bead soaked in 40 micromolar DMSO solution) | inhibition (%) ([2]; readings at 8 hours, bead soaked in 1.25 micromolar DMSO solution) | inhibition (%) ([2]; readings at 8 hours, bead soaked in 2.5 micromolar DMSO solution) | inhibition (%) ([2]; readings at 8 hours, bead soaked in 5 micromolar DMSO solution) | inhibition (%) ([2]; readings at 8 hours, bead soaked in 10 micromolar DMSO solution) | inhibition (%) ([2]; readings at 8 hours, bead soaked in 20 micromolar DMSO solution) | inhibition (%) ([2]; readings at 8 hours, bead soaked in 40 micromolar DMSO solution) | Compound
zones of reduced fluorescence | – | – | – | – | – | – | – | – | – | – | – | – | – | CC(C)C[C@H](NP(=O)(O)O[C@@H]1O[C@@H](C)[C@H](O)[C@@H](O)[C@H]1O)C(=O)N[C@@H](Cc1c[nH]c2ccccc12)C(=O)O [phosphoramidon]
– | 180 pM | -0.6% | 12.3% | 19.5% | 36.3% | 85.2% | (100) % | 6.5% | 14.0% | 18.2% | 40.0% | 47.5% | (100) % | endothelin-1
